In the supplement of paper PMC10307832:

Key:
Assay in all cases: relative viability (nuclei count vs DMSO), 5 days (fraction); higher = more cells survive
[1] = compound: COc1cc2nc(N3CCCN(C)CC3)nc(NC3CCN(Cc4ccccc4)CC3)c2cc1OC + Cc1nc(Nc2ncc(C(=O)Nc3c(C)cccc3Cl)s2)cc(N2CCN(CCO)CC2)n1 [Dasatinib] (partner 0.075 µM)
In short: (§1)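 One day after seeding in 1536-well plates, lung cancer cell lines were dosed by pin tool. Dosing was either single-drug or a fixed anchor-drug dose plus five library-drug doses (not always all listed) in √10 steps. After 5 days, nuclei were stained in one fix-and-stain step and counted on 4× images, and relative viability is the nuclei count of treated wells over that of vehicle wells, given as the median of duplicate plates.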

[2] = compound: Cc1cc([C@@H](C)Nc2ccccc2C(=O)O)c2nc(N3CCOCC3)cc(=O)n2c1 [AZD6482] + COc1cc2c(Oc3ccc(NC(=O)C4(C(=O)Nc5ccc(F)cc5)CC4)cc3F)ccnc2cc1OCCCN1CCOCC1 [Foretinib] (partner 0.25 µM)
In short: as §1

[3] = compound: Cc1cc([C@@H](C)Nc2ccccc2C(=O)O)c2nc(N3CCOCC3)cc(=O)n2c1 [AZD6482] + C[C@@H](Oc1cc(-c2cnn(C3CCNCC3)c2)cnc1N)c1c(Cl)ccc(F)c1Cl [Crizotinib] (partner 1 µM)
In short: as §1

[4] = compound: COc1cc2nc(N3CCCN(C)CC3)nc(NC3CCN(Cc4ccccc4)CC3)c2cc1OC + Cc1nc(NC(=O)N2CCC[C@H]2C(N)=O)sc1-c1ccnc(C(C)(C)C(F)(F)F)c1 [Alpelisib] (partner 2 µM)
In short: as §1

Row | Cell Line | relative viability ([1]; first compound 0.2 µM) | relative viability ([1]; first compound 0.6325 µM) | relative viability ([1]; first compound 2 µM) | relative viability ([1]; first compound 6.325 µM) | relative viability ([2]; first compound 0.08 µM) | relative viability ([2]; first compound 0.253 µM) | relative viability ([2]; first compound 0.8 µM) | relative viability ([2]; first compound 2.53 µM) | relative viability ([2]; first compound 8 µM) | relative viability ([3]; first compound 0.08 µM) | relative viability ([3]; first compound 0.8 µM) | relative viability ([3]; first compound 2.53 µM) | relative viability ([3]; first compound 8 µM) | relative viability ([4]; first compound 0.2 µM) | relative viability ([4]; first compound 0.6325 µM) | relative viability ([4]; first compound 2 µM) | relative viability ([4]; first compound 6.325 µM) | relative viability ([3]; first compound 0.253 µM)
1 | NCI-H1623 | 0.517 | 0.604 | 0.507 | 0.524 | 0.778 | 0.888 | 0.923 | 0.703 | 0.682 |  |  |  |  |  |  |  |  | 
2 | NCI-H1650 | 0.28 | 0.367 | 0.327 | 0.233 | 0.902 | 0.937 | 0.933 | 0.738 | 0.684 | 0.907 | 0.958 | 0.662 | 0.653 |  |  |  |  | 
3 | NCI-H1703 |  |  |  |  | 0.266 | 0.414 | 0.322 | 0.259 | 0.259 | 0.583 | 0.396 | 0.245 | 0.343 | 0.313 | 0.265 | 0.402 | 0.353 | 0.505
4 | NCI-H1792 | 0.89 | 0.781 | 0.824 | 0.816 |  |  |  |  |  | 0.909 | 0.983 | 0.717 | 0.444 | 0.725 | 0.74 | 0.717 | 0.737 | 0.828
5 | NCI-H1793 | 0.378 | 0.412 | 0.375 | 0.375 | 0.575 | 0.431 | 0.507 | 0.3 | 0.322 |  |  |  |  | 0.677 | 0.722 | 0.812 | 0.785 | 
6 | NCI-H2342 | 0.34 | 0.295 | 0.311 | 0.312 | 0.927 | 0.891 | 0.987 | 0.614 | 0.653 |  |  |  |  |  |  |  |  | 
7 | SW 900 | 0.411 | 0.578 | 0.654 | 0.498 | 0.751 | 0.753 | 0.773 |  | 0.792 |  |  |  |  |  |  |  |  | 
